Consider 26 compounds from patent publication US20090069320A1, “Substituted 4-Amino-Quinazoline Compounds with Metabotropic Glutamate Receptor Regulating Activity and Uses Thereof” (Gruenenthal GmbH, priority 2006, published 2009).

T1 sequence (I3LUI7 19-1212): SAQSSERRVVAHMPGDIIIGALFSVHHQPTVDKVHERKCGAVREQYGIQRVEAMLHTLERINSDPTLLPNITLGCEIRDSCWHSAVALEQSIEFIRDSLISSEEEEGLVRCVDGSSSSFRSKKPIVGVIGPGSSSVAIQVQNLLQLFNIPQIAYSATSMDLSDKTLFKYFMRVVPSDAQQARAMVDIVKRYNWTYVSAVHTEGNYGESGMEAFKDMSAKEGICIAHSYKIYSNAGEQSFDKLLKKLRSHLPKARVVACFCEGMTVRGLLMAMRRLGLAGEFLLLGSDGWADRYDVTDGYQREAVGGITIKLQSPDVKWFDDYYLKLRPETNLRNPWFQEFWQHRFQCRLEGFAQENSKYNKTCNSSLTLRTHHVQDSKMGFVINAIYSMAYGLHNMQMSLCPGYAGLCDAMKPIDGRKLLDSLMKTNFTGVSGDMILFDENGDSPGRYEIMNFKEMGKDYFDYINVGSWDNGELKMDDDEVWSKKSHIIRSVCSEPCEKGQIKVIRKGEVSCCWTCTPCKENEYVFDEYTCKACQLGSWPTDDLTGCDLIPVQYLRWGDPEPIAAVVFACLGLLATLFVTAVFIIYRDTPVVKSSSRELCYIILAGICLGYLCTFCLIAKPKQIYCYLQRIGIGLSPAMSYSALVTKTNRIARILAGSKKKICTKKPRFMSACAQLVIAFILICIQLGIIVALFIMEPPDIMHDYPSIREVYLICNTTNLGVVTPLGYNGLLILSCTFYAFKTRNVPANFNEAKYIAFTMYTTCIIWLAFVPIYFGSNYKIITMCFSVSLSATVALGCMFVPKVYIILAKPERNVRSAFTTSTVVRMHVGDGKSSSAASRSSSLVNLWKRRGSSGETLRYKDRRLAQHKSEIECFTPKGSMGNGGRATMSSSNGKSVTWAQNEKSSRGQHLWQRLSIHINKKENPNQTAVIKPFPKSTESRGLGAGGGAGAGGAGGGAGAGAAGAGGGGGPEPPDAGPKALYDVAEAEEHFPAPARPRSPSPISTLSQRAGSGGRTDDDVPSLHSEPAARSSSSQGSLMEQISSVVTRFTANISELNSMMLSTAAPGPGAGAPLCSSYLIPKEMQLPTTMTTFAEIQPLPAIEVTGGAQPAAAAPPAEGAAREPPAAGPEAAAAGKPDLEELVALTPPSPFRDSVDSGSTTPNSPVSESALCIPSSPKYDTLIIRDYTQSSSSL

One test addresses T1, mGluR5 receptor (Sus scrofa, UniProt I3LUI7).
T1 construct: 450 μg of protein from brain homogenate with 5 nM ^3[H]-MPEP; from tissue; host or cells: pig brain halves without medulla, cerebellum and pons
In words: [3H]-MPEP mGluR5 receptor binding assay (pig brain homogenate). Conditions: 5 nM [3H]-MPEP, read-out: IC50 mGluR5 Receptor (pig) [^3H]-MPEP Bond. The essentials: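 Radioligand displacement of 5 nM [3H]-MPEP from pig brain homogenate (450 μg protein; medulla, cerebellum and pons removed) in 20 mM Hepes pH 8.0. Compounds were tested at 10 μM, incubated 60 min at room temperature, then filtered and counted by scintillation. Non-specific binding was defined with 10 μM MPEP.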
For `CC(=O)N(Cc1cccc(-c2ccc3ncnc(NC4CC4)c3c2)c1)C1CCC1` [Example 893, N-cyclobutyl-N-(3-(4-(cyclopropylamino)quinazolin-6-yl)benzyl)acetamide], the IC50 (commonly the concentration that gives 50% inhibition) amounted to 3.21 µM. The same measure, in the same setting: as for `CC(=O)N(CCc1ccccc1)Cc1cccc(-c2ccc3ncnc(NC4CC4)c3c2)c1` [Example 214, N-[3-(4-cyclopropylamino-quinazolin-6-yl)-benzyl]-N-phenethyl-acetamide], the figure is 6.92 µM; as for `O=S(=O)(c1ccc(C(F)(F)F)cc1)N(Cc1cccc(-c2ccc3ncnc(NC4CC4)c3c2)c1)C1CC1` [Example 226, N-cyclopropyl-N-(3-(4-(cyclopropylamino)quinazolin-6-yl)benzyl)-4-(trifluoromethyl)benzole sulfonamide], 2.64 µM; as for `CN1CCN(Cc2cccc(-c3ccc4ncnc(NC5CC5)c4c3)c2)C1=O` [Example 877, 1-(3-(4-(cyclopropylamino)quinazolin-6-yl)benzyl)-3-methylimidazolidin-2-one], 9.57 µM. On the same count and under the same terms, as for `CC(=O)N(Cc1cccc(-c2ccc3ncnc(NC4CC4)c3c2)c1)Cc1ccco1` [Example 216, N-[3-(4-cyclopropylamino-quinazolin-6-yl)-benzyl]-N-furan-2-yl-methyl-acetamide], the figure is 1.5 µM.

The test is the same for the next values; noted with them: 10 μM compound, 5 nM [3H]-MPEP.
In the case of `CC(C)(C)Nc1ncnc2ccc(-c3ccc(F)c(CN(C(=O)CCc4ccccc4)C4CC4)c3)cc12` [Example 821, N-(5-(4-(tert-butylamino)quinazolin-6-yl)-2-fluorobenzyl)-N-cyclopropyl-3-phenyl propanamide], the “% Inhibition of mGluR5 Receptor (pig) [^3H]-MPEP Bond at 10 μM” value came to 84%. The same measure, in the same setting: for `COc1ccc(S(=O)(=O)N(Cc2cc(-c3ccc4ncnc(NC5CC5)c4c3)ccc2Cl)C2CC2)cc1` [Example 786, N-(2-chloro-5-(4-(cyclopropylamino)quinazolin-6-yl)benzyl)-N-cyclopropyl-4-methoxybenzole sulfonamide] the value was 95%.

The same test, now with this note: 10 μM compound, 5 nM [3H]-MPEP, read-out: % Inhibition of mGluR5 Receptor (pig) [^3H]-MPEP Bond at 10 μM.
Take `Cc1cccc(CNc2ncnc3ccc(-c4cccc(CN(C(=O)c5ccncc5)C5CC5)c4)cc23)c1` [Example 403, N-cyclopropyl-N-(3-(4-(3-methylbenzylamino)quinazolin-6-yl)benzyl)isonicotinamide]: the inhibition – broadly, the change of the read-out against control, counted positive when it falls – at 10 µM was found to be 40%.

For `COCC(=O)N(Cc1cccc(-c2cc3c(NC4CC4)ncnc3cc2C)c1)C1CC1` [Example 797, N-cyclopropyl-N-(3-(4-(cyclopropylamino)-7-methylquinazolin-6-yl)benzyl)-2-methoxyacetamide], the inhibition at 10 µM is 85%. Still for that read-out and setting: for `O=C(c1cc(Cl)cc(Cl)c1)N(Cc1cc(-c2ccc3ncnc(NC4CC4)c3c2)ccc1Cl)C1CC1` [Example 747, 3,5-dichloro-N-(2-chloro-5-(4-(cyclopropylamino)quinazolin-6-yl)benzyl)-N-cyclopropylbenzamide] the value was 52%.

In the case of `O=C(c1ccccn1)N(Cc1cc(-c2ccc3ncnc(NC4CC4)c3c2)ccc1Cl)C1CC1` [Example 755, N-(2-chloro-5-(4-(cyclopropylamino)quinazolin-6-yl)benzyl)-N-cyclopropylpicolinamide], the inhibition at 10 µM worked out at 78%. `N#CCC(=O)N(Cc1cc(F)cc(-c2ccc3ncnc(NC4CC4)c3c2)c1)C1CC1` [Example 902, 2-cyano-N-cyclopropyl-N-(3-(4-(cyclopropylamino)quinazolin-6-yl)-5-fluorobenzyl)acetamide]: the inhibition at 10 µM is 92%.

For `CCN(CC)c1ncnc2ccc(-c3cccc(CN(C)C(=O)c4cccc(C#N)c4)c3)cc12` [Example 69, 3-cyano-N-[3-(4-diethylamino-quinazolin-6-yl)-benzyl]-N-methyl-benzamide], the inhibition at 10 µM was 38%. Take `CC(C)Nc1ncnc2ccc(-c3cccc(CN(Cc4ccccc4)C(=O)c4ccco4)c3)cc12` [Example 149, furan-2-carboxylic acid benzyl-[3-(4-isopropylamino-quinazolin-6-yl)-benzyl]-amide]: the inhibition at 10 µM was found to be 32%. The same measure, in the same setting: for `CNc1ncnc2ccc(-c3ccc(F)c(CN(C)C(=O)c4c(F)c(F)c(F)c(F)c4F)c3)cc12` [Example 585, 2,3,4,5,6-pentafluoro-N-(2-fluoro-5-(4-(methylamino)quinazolin-6-yl)benzyl)-N-methylbenzamide] the value was 70%; for `CCCN(Cc1cccc(-c2ccc3ncnc(Nc4ccccc4)c3c2)c1)C(=O)COc1ccccc1` [Example 90, 2-phenoxy-N-[3-(4-phenylamino-quinazolin-6-yl)-benzyl]-N-propyl-acetamide], 44%. Regarding `CC(C)Nc1ncnc2ccc(-c3cccc(CN(Cc4ccccc4)C(=O)c4ccc(C#N)cc4)c3)cc12` [Example 44, N-benzyl-4-cyano-N-[3-(4-isopropylamino-quinazolin-6-yl)-benzyl]-benzamide], the inhibition at 10 µM worked out at 37%. Still for that read-out and setting: as for `CC(=O)N(Cc1nc(-c2ccc3ncnc(NC4CC4)c3c2)cs1)C1CC1` [Example 903, N-cyclopropyl-N-((4-(4-(cyclopropylamino)quinazolin-6-yl)thiazole-2-yl)methyl)acetamide], the figure is 87%; as for `CC(=O)N(Cc1cccc(-c2ccc3ncnc(NCc4cccc(C)c4)c3c2)c1)C1CC1` [Example 419, N-cyclopropyl-N-(3-(4-(3-methylbenzylamino)quinazolin-6-yl)benzyl)acetamide], 76%. Turning to `O=C(Cc1ccccc1)N(Cc1cccc(-c2cc(F)c3ncnc(NC4CC4)c3c2)c1)C1CC1` [Example 670, N-cyclopropyl-N-(3-(4-(cyclopropylamino)-8-fluoroquinazolin-6-yl)benzyl)-2-phenylacetamide], the inhibition at 10 µM came to 79%. Same read-out and setting: for `Cc1nc(NC2CC2)c2cc(-c3cccc(CN(C(=O)c4cccc(C(F)(F)F)c4)C4CC4)c3)ccc2n1` [Example 462, N-cyclopropyl-N-(3-(4-(cyclopropylamino)-2-methylquinazolin-6-yl)benzyl)-3-(trifluoromethyl)benzamide] the value was 48%; for `N#Cc1cccc(C(=O)N(Cc2cccc(-c3ccc4ncnc(NC5CC5)c4c3)c2)C2CC2)c1` [Example 176, 3-cyano-N-cyclopropyl-N-[3-(4-cyclopropylamino-quinazolin-6-yl)-benzyl]-benzamide], 76%; for `Cc1cc2ncnc(NC3CC3)c2cc1-c1cccc(CN(C2CC2)S(C)(=O)=O)c1` [Example 697, N-cyclopropyl-N-(3-(4-(cyclopropylamino)-7-methylquinazolin-6-yl)benzyl)methane sulfonamide], 90%.

Regarding `CN(c1ncnc2ccc(-c3ccc(F)c(CN(C(=O)c4ccco4)C4CC4)c3)cc12)C1CC1` [Example 420, N-cyclopropyl-N-(5-(4-(cyclopropyl(methyl)amino)quinazolin-6-yl)-2-fluorobenzyl)furan-2-carboxamide], the inhibition at 10 µM was found to be 94%.

Regarding `O=C(c1ccccc1)N(Cc1cccc(-c2cc(F)c3ncnc(NC4CC4)c3c2)c1)C1CC1` [Example 693, N-cyclopropyl-N-(3-(4-(cyclopropylamino)-8-fluoroquinazolin-6-yl)benzyl)benzamide], the inhibition at 10 µM came to 102%. Same read-out and setting: for `CCCN(Cc1cccc(-c2ccc3ncnc(Nc4ccccc4)c3c2)c1)C(=O)c1ccccn1` [Example 95, pyridine-2-carboxylic acid [3-(4-phenylamino-quinazolin-6-yl)-benzyl]-propyl-amide] the value was 61%.
